Patent US8497278B2, “Imidazo[1,2-a]pyridine compounds” (priority 2008, dated 2013)

Tested on: central benzodiazepine receptors
Assay: Central benzodiazepine receptor binding (test of Speth et al.)
Settings: 1000 nM of the compound
Description: Compounds of the invention were assessed for their binding to the benzodiazepine receptor by the test of Speth et al. [Life Sci. 24, 351 (1979)] for central benzodiazepine receptors and LeFur et al. [Life Sci. 33, 449 (1983)] for peripheral receptors. The compounds were tested first at 1.0E-09, 1.0E-07 and 1.0E-05 M in single determination. […] The specific ligand binding to the receptor is defined as the difference between the total binding and the nonspecific binding determined in the presence of an excess of unlabelled ligand. In each experiment, the respective reference compound was tested concurrently with the test compounds in order to assess the assay suitability. It was tested at several concentrations (for IC50 value determination), and the data were compared with historical values. The assay was rendered valid if suitability criteria were met.
BZD central binding data for the compounds is provided in Table 3, wherein is provided the percent inhibition of central BZD in the presence of 1000 nM of the compound.

| Structure (SMILES) | % Inhibition at 1000 nM for CBZD |
| --- | --- |
| Cc1ccc(-c2nc3ccc(C)cn3c2CNn2cnnc2)cc1 [Compound 152, (6-methyl-2-p-tolylH-imidazo[1,2-a]pyridin-3-yl)-N-(4H-1,2,4-triazol-4-yl)methanamine] | + (percentage of inhibition of central BZD site binding is greater than 50% but less than 80% in the presence of 1000 nM of the compound) |
| Cc1ccc(-c2nc3ccc(C)cn3c2Cn2c(C)c(C)sc2=S)cc1 [Compound 130, 4,5-Dimethyl-3-(6-methyl-2-p-tolyl-imidazo[1,2-a]pyridin-3-ylmethyl)-3H-thiazole-2-thione] | ++ (percentage of inhibition of central BZD site binding is greater than 80% in the presence of 1000 nM of the compound) |
| Cc1ccc(-c2nc3ccc(C)cn3c2CN2CCCCC2=O)cc1 [Compound 95, 1-((6-methyl-2-p-tolyl-H-imidazo[1,2-a]pyridin-3-yl)methyl)piperidin-2-one] | ++ (percentage of inhibition of central BZD site binding is greater than 80% in the presence of 1000 nM of the compound) |
| CNC(=O)c1ncnn1Cc1c(-c2ccc(C)cc2)nc2ccc(C)cn12 [Compound 68, 2-(6-Methyl-2-p-tolyl-imidazo[1,2-a]pyridin-3-ylmethyl)-2H-[1,2,4]triazole-3-carboxylic acid methylamide] | ++ (percentage of inhibition of central BZD site binding is greater than 80% in the presence of 1000 nM of the compound) |
| Cc1cc(Cl)nc(NCc2c(-c3ccc(C#N)cc3)nc3ccc(Cl)cn23)n1 [Compound 161, 4-(6-chloro-3-((4-chloro-6-methylpyrimidin-2-ylamino)methyl)imidazo[1,2-a]pyridin-2-yl)benzonitrile] | ++ (percentage of inhibition of central BZD site binding is greater than 80% in the presence of 1000 nM of the compound) |
| Cc1ccc(-c2nc3c(Cl)cc(Cl)cn3c2CN2CCCC2=O)cc1 [Compound 116, 1-(6,8-Dichloro-2-p-tolyl-imidazo[1,2-a]pyridin-3-ylmethyl)-pyrrolidin-2-one] | ++ (percentage of inhibition of central BZD site binding is greater than 80% in the presence of 1000 nM of the compound) |
| NC(=O)c1ncnn1Cc1c(-c2ccc(Cl)cc2)nc2cccnn12 [Compound 89, 1-((2-(4-chlorophenyl)imidazo[1,2-b]pyridazin-3-yl)methyl)-1H-1,2,4-triazole-5-carboxamide] | ++ (percentage of inhibition of central BZD site binding is greater than 80% in the presence of 1000 nM of the compound) |
| Cc1ccc(-c2nc3ccc(C)cn3c2CNc2nc3ccccc3n2C)cc1 [Compound 154, 1-methyl-N-((6-methyl-2-p-tolylH-imidazo[1,2-a]pyridin-3-yl)methyl)-1H-benzo[d]imidazol-2-amine] | ++ (percentage of inhibition of central BZD site binding is greater than 80% in the presence of 1000 nM of the compound) |
| CC(C)c1nnc(Cc2c(-c3ccccc3)nc3ccc(Cl)cn23)[nH]1 [Compound 232, 6-chloro-3-((5-isopropyl-4H-1,2,4-triazol-3-yl)methyl)-2-phenylimidazo[1,2-a]pyridine] | ++ (percentage of inhibition of central BZD site binding is greater than 80% in the presence of 1000 nM of the compound) |
| CNC(=O)c1cc(C)n(Cc2c(-c3ccc(Cl)cc3)nc3ccccn23)n1 [Compound 80, 1-((2-(4-chlorophenyl)imidazo[1,2-a]pyridin-3-yl)methyl)-N,5-dimethyl-1H-pyrazole-3-carboxamide] | ++ (percentage of inhibition of central BZD site binding is greater than 80% in the presence of 1000 nM of the compound) |
| CCOC(=O)c1nccn1Cc1c(-c2ccc(Cl)cc2)nc2ccccn12 [Compound 26, Ethyl 1-((2-(4-chlorophenyl)H-imidazo[1,2-a]pyridin-3-yl)methyl)-1H-imidazole-2-carboxylate] | ++ (percentage of inhibition of central BZD site binding is greater than 80% in the presence of 1000 nM of the compound) |
| CCOC(=O)c1cc(-c2ccco2)n(Cc2c(-c3ccc(Cl)cc3)nc3ccccn23)n1 [Compound 30, Ethyl 1-((2-(4-chlorophenyl)imidazo[1,2-a]pyridin-3-yl)methyl)-5-(furan-2-yl)-1H-pyrazole-3-carboxylate] | + (percentage of inhibition of central BZD site binding is greater than 50% but less than 80% in the presence of 1000 nM of the compound) |
| CN(C)C(=O)c1ncn(Cc2c(-c3ccc(Cl)cc3)nc3ccccn23)n1 [Compound 75, 1-((2-(4-chlorophenyl)imidazo[1,2-a]pyridin-3-yl)methyl)-N,N-dimethyl-1H-1,2,4-triazole-3-carboxamide] | ++ (percentage of inhibition of central BZD site binding is greater than 80% in the presence of 1000 nM of the compound) |
| CNC(=O)c1cc(C)nn1Cc1c(-c2ccc(Cl)cc2)nc2ccccn12 [Compound 79, 1-((2-(4-chlorophenyl)imidazo[1,2-a]pyridin-3-yl)methyl)-N,3-dimethyl-1H-pyrazole-5-carboxamide] | + (percentage of inhibition of central BZD site binding is greater than 50% but less than 80% in the presence of 1000 nM of the compound) |
| Cc1ccc(-c2nc3ccc(C)cn3c2Cn2[nH]c(C)cc2=O)cc1 [Compound 91, 1,2-dihydro-3-methyl-1-((6-methyl-2-p-tolyl-H-imidazo[1,2-a]pyridin-3-yl)methyl)pyrazol-5-one] | ++ (percentage of inhibition of central BZD site binding is greater than 80% in the presence of 1000 nM of the compound) |
| CN(C)CCNc1cncc(Cc2c(-c3ccc(Cl)cc3)nc3ccccn23)n1 [Compound 190, N1-(6-((2-(4-chlorophenyl)imidazo[1,2-a]pyridin-3-yl)methyl)pyrazin-2-yl)-N2,N2-dimethylethane-1,2-diamine] | ++ (percentage of inhibition of central BZD site binding is greater than 80% in the presence of 1000 nM of the compound) |
| O=C1COc2ccccc2N1Cc1c(-c2ccc(Cl)cc2)nc2ccccn12 [Compound 124, 4-((2-(4-chlorophenyl)imidazo[1,2-a]pyridin-3-yl)methyl)-2H-benzo[b][1,4]oxazin-3(4H)-one] | ++ (percentage of inhibition of central BZD site binding is greater than 80% in the presence of 1000 nM of the compound) |
| Cc1ccc(-c2nc3c(Cl)cc(Cl)cn3c2Cn2nc(C)ccc2=O)cc1 [Compound 117, 2-(6,8-Dichloro-2-p-tolyl-imidazo[1,2-a]pyridin-3-ylmethyl)-6-methyl-2H-pyridazin-3-one] | ++ (percentage of inhibition of central BZD site binding is greater than 80% in the presence of 1000 nM of the compound) |
| Cc1nc(Cc2c(-c3ccc(Cl)cc3)nc3ccccn23)no1 [Compound 202, 3-((2-(4-chlorophenyl)imidazo[1,2-a]pyridin-3-yl)methyl)-5-methyl-1,2,4-oxadiazole] | ++ (percentage of inhibition of central BZD site binding is greater than 80% in the presence of 1000 nM of the compound) |
| Cl.Clc1ccc(-c2nc3ccc(Cl)cn3c2CNc2ncccn2)cc1 [Compound 156, N-((6-chloro-2-(4-chlorophenyl)H-imidazo[1,2-a]pyridin-3-yl)methyl)pyrimidin-2-amine hydrochloride] | ++ (percentage of inhibition of central BZD site binding is greater than 80% in the presence of 1000 nM of the compound) |
| Fc1cc(F)nc(NCc2c(-c3ccccc3)nc3ccc(Cl)cn23)n1 [Compound 168, N-((6-chloro-2-phenylimidazo[1,2-a]pyridin-3-yl)methyl)-4,6-difluoropyrimidin-2-amine] | ++ (percentage of inhibition of central BZD site binding is greater than 80% in the presence of 1000 nM of the compound) |
| Cc1ccc(-c2nc3ccc(C)cn3c2Cn2c(C)nc3ccccc32)cc1 [Compound 14, 2-Methyl-1-((6-methyl-2-p-tolylH-imidazo[1,2-a]pyridin-3-yl)methyl)-1H-benzo[d]imidazole] | − (percentage of inhibition of central BZD site binding is less than 50% in the presence of 1000 nM of the compound) |
| CCOC(=O)c1nccn1Cc1c(-c2ccc(Cl)cc2)nc2ccc(Cl)cn12 [Compound 22, 1-[6-Chloro-2-(4-chloro-phenyl)-imidazo[1,2-a]pyridin-3-ylmethyl]-1H-imidazole-2-carboxylic acid ethyl ester] | ++ (percentage of inhibition of central BZD site binding is greater than 80% in the presence of 1000 nM of the compound) |
| Cc1ccc(-c2nc3ccc(C)cn3c2COn2nnc3ccccc32)cc1 [Compound 174, 1-((6-methyl-2-p-tolylH-imidazo[1,2-a]pyridin-3-yl)methoxy)-1H-benzo[d][1,2,3]triazole] | ++ (percentage of inhibition of central BZD site binding is greater than 80% in the presence of 1000 nM of the compound) |
| Cc1ccc(-c2nc3ccc(C)cn3c2Cn2ccccc2=O)cc1 [Compound 96, 1-((6-methyl-2-p-tolyl-H-imidazo[1,2-a]pyridin-3-yl)methyl)pyridin-2(1H)-one] | ++ (percentage of inhibition of central BZD site binding is greater than 80% in the presence of 1000 nM of the compound) |
| Cc1ccc(-c2nc3ccc(C)cn3c2Cn2ccsc2=S)cc1 [Compound 131, 3-((6-Methyl-2-p-tolylH-imidazo[1,2-a]pyridin-3-yl)methyl)thiazole-2(3H)-thione] | ++ (percentage of inhibition of central BZD site binding is greater than 80% in the presence of 1000 nM of the compound) |
